Experimental data published in ChEMBL document CHEMBL1132842, “Novel antifungals based on 4-substituted imidazole: solid-phase synthesis of substituted aryl sulfonamides towards optimization of in vitro activity” (Bioorg Med Chem Lett, 2000).
Values after ≈ are worked out from the molar mass of the structure shown. Values belong to the compound of their own block, whether it stands above or below them.

Key:
mold = assay: Concentration required to inhibit growth of pathogenic molds; assay type: functional
Saccharomyces cerevisiae [1] = assay: Concentration required to inhibit 65% growth of selected sets of Yeasts; assay type: functional
Aspergillus fumigatus = assay: Minimum concentration required to inhibit the growth of Aspergillus fumigatus; assay type: functional
Candida parapsilosis = assay: Minimum concentration required to inhibit the growth of Candida parapsilosis; assay type: functional; details: Lodderomyces parapsilosis
Sporothrix schenckii = assay: Minimum concentration required to inhibit the growth of Sporothrix schenck ii; assay type: functional
Microsporum canis = assay: Minimum concentration required to inhibit the growth of […] canis; assay type: functional
Pichia kudriavzevii = assay: Minimum concentration required to inhibit the growth of Candida krusei; assay type: functional
Trichophyton benhamiae = assay: Minimum concentration required to inhibit the growth of Trichophyton mentagrophytes; assay type: functional, Arthroderma benhamiae
Nakaseomyces glabratus = assay: Minimum concentration required to inhibit the growth of Candida glabrata; assay type: functional
Candida tropicalis = assay: Minimum concentration required to inhibit the growth of Candida tropicalis; assay type: functional
Candida albicans [2] = assay: Minimum concentration required to inhibit the growth of Candida albicans 2; assay type: functional
Trichophyton rubrum = assay: Minimum concentration required to inhibit the growth of Trichophyton rubrum; assay type: functional
Candida albicans [3] = assay: Minimum concentration required to inhibit the growth of Candida albicans 4; assay type: functional
Kluyveromyces marxianus = assay: Minimum concentration required to inhibit the growth of Candida kefyr; assay type: functional
Candida albicans [4] = assay: Minimum concentration required to inhibit the growth of Candida albicans 1; assay type: functional
Cryptococcus neoformans = assay: Minimum concentration required to inhibit the growth of Cryptococcus neoformans; assay type: functional
Saccharomyces cerevisiae [5] = assay: Concentration required to inhibit 65% growth of Yeast strains; assay type: functional

SMILES: O=S(=O)(c1ccc(CNCCc2ccc(Cl)cc2Cl)cc1)N(CCc1ccc(F)cc1)Cc1c[nH]cn1
pLADM (mold): 4.4
pLADY (Saccharomyces cerevisiae [1]): 6.1

SMILES: CCC(CC)Nc1ccc(S(=O)(=O)N(Cc2c[nH]cn2)C(C(C)C)C(C)C)cc1
pLADM (mold): 4
pLADY (Saccharomyces cerevisiae [1]): 6.5

SMILES: O=S(=O)(c1ccc(-c2ccc(F)cc2)cc1)N(Cc1c[nH]cn1)C1CCCCC1
pLADM (mold): 4.4
pLADY (Saccharomyces cerevisiae [1]): 5.8

SMILES: CN1CCN(c2ccc(S(=O)(=O)N(Cc3c[nH]cn3)CC3CCCCC3)cc2)CC1
pLADM (mold): 4
pLADY (Saccharomyces cerevisiae [1]): 4.6

SMILES: O=S(=O)(c1ccc(N2CCN(c3cccc(C(F)(F)F)c3)CC2)cc1)N(Cc1c[nH]cn1)CC1CCCCC1
pLADM (mold): 4
pLADY (Saccharomyces cerevisiae [1]): 6.3

MIC (Aspergillus fumigatus): > 10 µM
MIC (Candida parapsilosis): 1 µM (≈ 0.432 µg/mL)
MIC (Sporothrix schenckii): > 10 µM
MIC (Microsporum canis): 10 µM (≈ 4.32 µg/mL)
MIC (Pichia kudriavzevii): > 10 µM
MIC (Trichophyton benhamiae): > 10 µM
MIC (Nakaseomyces glabratus): 10 µM (≈ 4.32 µg/mL)
MIC (Candida tropicalis): ≤ 0.1 µM
MIC (Candida albicans [2]): ≤ 0.1 µM
MIC (Trichophyton rubrum): 1 µM (≈ 0.432 µg/mL)
MIC (Candida albicans [3]): 10 µM (≈ 4.32 µg/mL)
MIC (Kluyveromyces marxianus): ≤ 0.1 µM
MIC (Candida albicans [4]): > 10 µM
MIC (Cryptococcus neoformans): 1 µM (≈ 0.432 µg/mL)
SMILES: CCCCOc1ccc(S(=O)(=O)N(CCc2ccc(F)cc2)Cc2c[nH]cn2)cc1

SMILES: Cc1ccc(N2CCN(c3ccc(S(=O)(=O)N(Cc4c[nH]cn4)CC4CCCCC4)cc3)CC2)cc1
pLADM (mold): 4
pLADY (Saccharomyces cerevisiae [1]): 6.3

SMILES: CN(c1ccc(S(=O)(=O)N(Cc2c[nH]cn2)CC2CCCCC2)cc1)C1CCCCC1
pLADM (mold): 4
pLADY (Saccharomyces cerevisiae [1]): 5.5

SMILES: O=S(=O)(c1ccc(N2CCN(c3ccccc3Cl)CC2)cc1)N(CCc1ccccc1F)Cc1c[nH]cn1
pLADM (mold): 4.2
pLADY (Saccharomyces cerevisiae [1]): 6

SMILES: O=S(=O)(c1ccc(N2CCN(c3ccccn3)CC2)cc1)N(Cc1c[nH]cn1)CC1CCCCC1
pLADM (mold): 4
pLADY (Saccharomyces cerevisiae [1]): 6.4

SMILES: COc1ccc(-c2ccc(S(=O)(=O)N(Cc3c[nH]cn3)CC3CCCCC3)cc2)cc1
pLADM (mold): 4.4
pLADY (Saccharomyces cerevisiae [1]): 6.3

SMILES: CC(C)C(C(C)C)N(Cc1c[nH]cn1)S(=O)(=O)c1ccc(N2CCN(c3ccc(F)cc3)CC2)cc1
pLADM (mold): 4
pLADY (Saccharomyces cerevisiae [1]): 6.4

SMILES: O=S(=O)(c1ccc(-c2ccc(Cl)cc2)cc1)N(Cc1c[nH]cn1)CC1CCCCC1
pLADM (mold): 4.4
pLADY (Saccharomyces cerevisiae [1]): 6.3

MIC (Aspergillus fumigatus): 1 µM (≈ 0.706 µg/mL)
MIC (Candida parapsilosis): ≤ 0.1 µM
MIC (Sporothrix schenckii): 10 µM (≈ 7.06 µg/mL)
MIC (Microsporum canis): ≤ 0.1 µM
MIC (Pichia kudriavzevii): 1 µM (≈ 0.706 µg/mL)
MIC (Trichophyton benhamiae): 0.1 µM (≈ 0.0706 µg/mL)
MIC (Nakaseomyces glabratus): 1 µM (≈ 0.706 µg/mL)
MIC (Candida tropicalis): 0.1 µM (≈ 0.0706 µg/mL)
MIC (Candida albicans [2]): ≤ 0.1 µM
MIC (Trichophyton rubrum): ≤ 0.1 µM
MIC (Candida albicans [3]): > 10 µM
MIC (Kluyveromyces marxianus): ≤ 0.1 µM
MIC (Candida albicans [4]): > 10 µM
MIC (Cryptococcus neoformans): ≤ 0.1 µM
SMILES: CCC(C)n1ncn(-c2ccc(N3CCN(c4ccc(OCC5COC(Cn6cncn6)(c6ccc(Cl)cc6Cl)O5)cc4)CC3)cc2)c1=O (stereo not given) [ITRACONAZOLE]

SMILES: O=S(=O)(c1ccc(N2CCN(c3ccc(Cl)c(Cl)c3)CC2)cc1)N(CCc1ccccc1F)Cc1c[nH]cn1
pLADM (mold): 4
pLADY (Saccharomyces cerevisiae [1]): 5.8

SMILES: CC(C)C(C(C)C)N(Cc1c[nH]cn1)S(=O)(=O)c1ccc(-c2ccc(Cl)cc2)cc1
pLADM (mold): 5.4
pLADY (Saccharomyces cerevisiae [1]): 6.4

MIC (Aspergillus fumigatus): > 10 µM
MIC (Candida parapsilosis): ≤ 0.1 µM
MIC (Sporothrix schenckii): > 10 µM
MIC (Microsporum canis): 10 µM (≈ 5.12 µg/mL)
MIC (Pichia kudriavzevii): 10 µM (≈ 5.12 µg/mL)
MIC (Trichophyton benhamiae): > 10 µM
MIC (Nakaseomyces glabratus): 10 µM (≈ 5.12 µg/mL)
MIC (Candida tropicalis): ≤ 0.1 µM
MIC (Candida albicans [2]): ≤ 0.1 µM
MIC (Trichophyton rubrum): 10 µM (≈ 5.12 µg/mL)
MIC (Candida albicans [3]): ≤ 0.1 µM
MIC (Kluyveromyces marxianus): ≤ 0.1 µM
MIC (Candida albicans [4]): > 10 µM
MIC (Cryptococcus neoformans): 1 µM (≈ 0.512 µg/mL)
SMILES: O=S(=O)(c1ccc(N2CCN(c3ccc(F)cc3)CC2)cc1)N(Cc1c[nH]cn1)CC1CCCCC1
pLADM (mold): 4
pLADY (Saccharomyces cerevisiae [5]): 6.9

SMILES: O=S(=O)(c1ccc(CN2CCN(c3ccccn3)CC2)cc1)N(Cc1c[nH]cn1)CC1CCCCC1
pLADM (mold): 4
pLADY (Saccharomyces cerevisiae [1]): 6.4

MIC (Aspergillus fumigatus): > 10 µM
MIC (Candida parapsilosis): ≤ 0.1 µM
MIC (Sporothrix schenckii): > 10 µM
MIC (Microsporum canis): 1 µM (≈ 0.434 µg/mL)
MIC (Pichia kudriavzevii): 1 µM (≈ 0.434 µg/mL)
MIC (Trichophyton benhamiae): 10 µM (≈ 4.34 µg/mL)
MIC (Nakaseomyces glabratus): 1 µM (≈ 0.434 µg/mL)
MIC (Candida tropicalis): 1 µM (≈ 0.434 µg/mL)
MIC (Candida albicans [2]): ≤ 0.1 µM
MIC (Trichophyton rubrum): 1 µM (≈ 0.434 µg/mL)
MIC (Candida albicans [3]): ≤ 0.1 µM
MIC (Kluyveromyces marxianus): ≤ 0.1 µM
MIC (Candida albicans [4]): > 10 µM
MIC (Cryptococcus neoformans): 1 µM (≈ 0.434 µg/mL)
SMILES: CCCCOc1ccc(S(=O)(=O)N(Cc2c[nH]cn2)C(CC)C2CCCCC2)cc1 (stereo not given)

SMILES: O=S(=O)(c1ccc(N2CCCCC2)cc1)N(CCc1ccccc1F)Cc1c[nH]cn1
pLADM (mold): 4.2
pLADY (Saccharomyces cerevisiae [1]): 5.9

SMILES: CC(=O)Nc1cccc(-c2ccc(S(=O)(=O)N(Cc3c[nH]cn3)CC3CCCCC3)cc2)c1
pLADM (mold): 4
pLADY (Saccharomyces cerevisiae [1]): 4.1

SMILES: COc1ccc(-c2ccc(S(=O)(=O)N(Cc3c[nH]cn3)C(C(C)C)C(C)C)cc2)cc1
pLADM (mold): 5
pLADY (Saccharomyces cerevisiae [1]): 6.4

SMILES: C[C@@H](c1ncncc1F)[C@](O)(Cn1cncn1)c1ccc(F)cc1F [VORICONAZOLE]
MIC (Aspergillus fumigatus): 1 µM (≈ 0.349 µg/mL)
MIC (Candida parapsilosis): ≤ 0.1 µM
MIC (Sporothrix schenckii): > 10 µM
MIC (Microsporum canis): 1 µM (≈ 0.349 µg/mL)
MIC (Pichia kudriavzevii): 10 µM (≈ 3.49 µg/mL)
MIC (Trichophyton benhamiae): ≤ 0.1 µM
MIC (Nakaseomyces glabratus): 10 µM (≈ 3.49 µg/mL)
MIC (Candida tropicalis): 1 µM (≈ 0.349 µg/mL)
MIC (Candida albicans [2]): ≤ 0.1 µM
MIC (Trichophyton rubrum): ≤ 0.1 µM
MIC (Kluyveromyces marxianus): ≤ 0.1 µM
MIC (Candida albicans [4]): > 10 µM
MIC (Cryptococcus neoformans): 1 µM (≈ 0.349 µg/mL)

SMILES: O=S(=O)(c1ccc(-c2ccc(F)cc2)cc1)N(Cc1c[nH]cn1)CC1CCCCC1
pLADM (mold): 4.4
pLADY (Saccharomyces cerevisiae [1]): 6.3

SMILES: O=S(=O)(c1ccc(N2CCOCC2)cc1)N(CCc1ccccc1F)Cc1c[nH]cn1
pLADM (mold): 4
pLADY (Saccharomyces cerevisiae [1]): 4.5

SMILES: CCCCCCN(Cc1c[nH]cn1)S(=O)(=O)c1ccc(-c2ccc(F)cc2)cc1
pLADM (mold): 4.8
pLADY (Saccharomyces cerevisiae [1]): 5.9

MIC (Aspergillus fumigatus): > 10 µM
MIC (Candida parapsilosis): < 0.1 µM
MIC (Sporothrix schenckii): > 10 µM
MIC (Microsporum canis): 10 µM (≈ 5.36 µg/mL)
MIC (Pichia kudriavzevii): 1 µM (≈ 0.536 µg/mL)
MIC (Trichophyton benhamiae): > 10 µM
MIC (Nakaseomyces glabratus): 10 µM (≈ 5.36 µg/mL)
MIC (Candida tropicalis): 1 µM (≈ 0.536 µg/mL)
MIC (Candida albicans [2]): ≤ 0.1 µM
MIC (Trichophyton rubrum): 10 µM (≈ 5.36 µg/mL)
MIC (Candida albicans [3]): 1 µM (≈ 0.536 µg/mL)
MIC (Kluyveromyces marxianus): ≤ 0.1 µM
MIC (Candida albicans [4]): 10 µM (≈ 5.36 µg/mL)
MIC (Cryptococcus neoformans): 1 µM (≈ 0.536 µg/mL)
SMILES: O=S(=O)(c1ccc(CNCCc2ccc(Cl)cc2Cl)cc1)N(Cc1c[nH]cn1)CC1CCCCC1
pLADM (mold): 4.4
pLADY (Saccharomyces cerevisiae [5]): 6.5

SMILES: O=S(=O)(c1ccc(N2CCN(c3ccc(F)cc3)CC2)cc1)N(CCc1ccccc1F)Cc1c[nH]cn1
pLADM (mold): 4.4
pLADY (Saccharomyces cerevisiae [1]): 6.8

SMILES: O=S(=O)(c1ccc(COc2ccc(F)cc2)cc1)N(Cc1c[nH]cn1)CC1CCCCC1
pLADM (mold): 4.4
pLADY (Saccharomyces cerevisiae [1]): 6.1

SMILES: CC(C)C(C(C)C)N(Cc1c[nH]cn1)S(=O)(=O)c1ccc(-c2ccccc2)cc1
pLADM (mold): 5.2
pLADY (Saccharomyces cerevisiae [1]): 6.6

MIC (Aspergillus fumigatus): 10 µM (≈ 4.3 µg/mL)
MIC (Candida parapsilosis): ≤ 0.1 µM
MIC (Sporothrix schenckii): > 10 µM
MIC (Microsporum canis): 1 µM (≈ 0.43 µg/mL)
MIC (Pichia kudriavzevii): 1 µM (≈ 0.43 µg/mL)
MIC (Trichophyton benhamiae): 10 µM (≈ 4.3 µg/mL)
MIC (Nakaseomyces glabratus): 1 µM (≈ 0.43 µg/mL)
MIC (Candida tropicalis): ≤ 0.1 µM
MIC (Candida albicans [2]): ≤ 0.1 µM
MIC (Trichophyton rubrum): 1 µM (≈ 0.43 µg/mL)
MIC (Candida albicans [3]): 1 µM (≈ 0.43 µg/mL)
MIC (Kluyveromyces marxianus): ≤ 0.1 µM
MIC (Candida albicans [4]): > 10 µM
MIC (Cryptococcus neoformans): ≤ 0.1 µM
SMILES: CC(C)C(C(C)C)N(Cc1c[nH]cn1)S(=O)(=O)c1ccc(-c2ccc(F)cc2)cc1
pLADM (mold): 5.2
pLADY (Saccharomyces cerevisiae [5]): 6.8

SMILES: O=S(=O)(c1ccc(-c2ccsc2)cc1)N(Cc1c[nH]cn1)CC1CCCCC1
pLADM (mold): 4.4
pLADY (Saccharomyces cerevisiae [1]): 6.1

SMILES: O=S(=O)(c1ccc(NCCc2ccc(Cl)cc2Cl)cc1)N(Cc1c[nH]cn1)CC1CCCCC1
pLADM (mold): 4
pLADY (Saccharomyces cerevisiae [1]): 5.4
